The values below come from US20240034736A1, “HSD17B13 INHIBITORS AND USES THEREOF” (FL2022-001, Inc., priority 2020, published 2024).

The IC50 is the midpoint of a concentration-inhibition curve. As usually defined, the inhibition is the drop in the measured response relative to a control, in per cent.

Bounds are passed on as bounds.

Sequence of Recombinant human HSD17B13 enzyme (Q7Z5P4 20-300): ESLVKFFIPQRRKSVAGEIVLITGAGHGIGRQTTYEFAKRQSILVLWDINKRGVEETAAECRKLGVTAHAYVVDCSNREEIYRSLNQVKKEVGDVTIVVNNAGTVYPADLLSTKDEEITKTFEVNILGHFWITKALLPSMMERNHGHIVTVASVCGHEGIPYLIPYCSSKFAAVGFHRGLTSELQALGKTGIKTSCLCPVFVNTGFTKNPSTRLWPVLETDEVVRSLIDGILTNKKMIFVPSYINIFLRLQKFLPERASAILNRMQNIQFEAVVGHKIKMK

In the first assay the target is Recombinant human HSD17B13 enzyme (Homo sapiens (Human), UniProt Q7Z5P4). The experiment in a line: HSD17b13 NAD(P)H-Glo Biochemical Assay. Particulars: 50 uM estradiol, 1 mM NAD+; read-out: HSD17β13 IC50. A digest of the protocol:
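Luminescent NAD(P)H-Glo detection (1 h, RT) quantified cofactor reduction after a 3 h, 37° C reaction of human HSD17B13 with estradiol (50 uM final) and NAD+ (1 mM final). Compounds were first pre-incubated 20 min at RT with enzyme in Tris pH 7.4 buffer containing Tween-20 and BSA.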
Regarding `Cc1nn(-c2cc(C(F)(F)F)c(F)c(O)c2F)c2cnc(N3CCN(S(C)(=O)=O)CC3)cc12` [Compound 19.45, 2,6-Difluoro-3-(3-methyl-5-(4-(methylsulfonyl)piperazin-1-yl)-1H-pyrazolo[3,4-c]pyridine-1-yl)-5-(trifluoromethyl)phenol], the half-inhibitory concentration (IC50) was in the range of 100 to 1000 nM. Regarding `CN(C)c1nn(-c2cc(C(F)(F)F)c(F)c(O)c2F)c2ccc(N(C)C3CCOCC3)cc12` [Compound 19.76, 3-(3-(Dimethylamino)-5-(methyl(tetrahydro-2H-pyran-4-yl)amino)-1H-indazol-1-yl)-2,6-difluoro-5-(trifluoromethyl)phenol], the IC50 is 100 to 1000 nM.

Turning to `Cc1nn(-c2cc(C(F)(F)F)c(F)c(O)c2F)c2cnc(N3CCC(Oc4ccccc4)CC3)cc12` [Compound 19.55, 2,6-Difluoro-3-(3-methyl-5-(4-phenoxypiperidin-1-yl)-1H-pyrazolo[3,4-c]pyridine-1-yl)-5-(trifluoromethyl)phenol], the IC50 fell in the range of 100 to 1000 nM. On to `O=C(O)Cc1ccc(-c2ccc3c(cnn3-c3ccc(F)c(O)c3)c2)cc1` [Compound 2.01, 2-(4-(1-(4-Fluoro-3-hydroxyphenyl)-1H-indazol-5-yl)phenyl)acetic acid], for which the IC50 fell in the range of 1000 to 30000 nM. `Cc1cc2c(cnn2-c2cc(O)c(F)c(F)c2)cc1N1CCN(S(C)(=O)=O)CC1` [Compound 21.11, 2,3-Difluoro-5-(6-methyl-5-(4-(methylsulfonyl)piperazin-1-yl)-1H-indazol-1-yl)phenol]: the IC50 fell in the range of 1000 to 30000 nM. With `Cc1nn(-c2cc(C(F)(F)F)c(F)c(O)c2F)c2cnc(N3CCN(S(=O)(=O)c4cnn(C)c4)CC34CC4)cc12` [Compound 19.84, 2,6-Difluoro-3-(3-methyl-5-(7-((1-methyl-1H-pyrazol-4-yl)sulfonyl)-4,7-diazaspiro[2.5]octan-4-yl)-1H-pyrazolo[3,4-c]pyridin-1-yl)-5-(trifluoromethyl)phenol], the half-maximal inhibitory concentration (IC50) was under 100 nM. Consider `CS(=O)(=O)N1CCN(c2cc3cn(-c4ccc(C(F)(F)F)c(O)c4F)nc3cn2)CC1` [Compound 19.26, 2-Fluoro-3-(5-(4-(methylsulfonyl)piperazin-1-yl)-2H-pyrazolo[3,4-c]pyridine-2-yl)-6-(trifluoromethyl)phenol], for which the IC50 fell in the range of 1000 to 30000 nM. For `COc1ccc(-c2ccc3c(cnn3-c3cc(O)c(F)c(F)c3F)c2)cc1Cl` [Compound 1.03, 5-(5-(3-Chloro-4-methoxyphenyl)-1H-indazol-1-yl)-2,3,4-trifluorophenol], the IC50 fell in the range of 100 to 1000 nM. On the same count and under the same terms, for `Oc1cc(-n2ncc3cc(-c4cccc(Cl)c4)ccc32)ccc1F` [Compound 1.01, 5-(5-(3-Chlorophenyl)-1H-indazol-1-yl)-2-fluorophenol] the value was 100 to 1000 nM. The same measure, in the same setting: under `Cc1cc(-n2ncc3cc(N4CCN(S(C)(=O)=O)CC4)ncc32)c(F)c(O)c1F` [Compound 19.28, 2,6-Difluoro-3-methyl-5-(5-(4-(methylsulfonyl)piperazin-1-yl)-1H-pyrazolo[3,4-c]pyridine-1-yl)phenol] stands 1000 to 30000 nM; under `Cc1nn(-c2cc(C(F)(F)F)c(F)c(O)c2F)c2cnc(N3CCN(S(C)(=O)=O)C4(CCCCC4)C3)cc12` [Compound 19.105, 2,6-Difluoro-3-(3-methyl-5-(1-(methylsulfonyl)-1,4-diazaspiro[5.5]undecan-4-yl)-1H-pyrazolo[3,4-c]pyridin-1-yl)-5-(trifluoromethyl)phenol], under 100 nM. Still for that read-out and setting: for `CS(=O)(=O)Nc1cccc(-c2ccc3c(cnn3-c3ccc(F)c(O)c3)c2)c1` [Compound 4.04, N-(3-(1-(4-Fluoro-3-hydroxyphenyl)-1H-indazol-5-yl)phenyl)methanesulfonamide] the value was 1000 to 30000 nM. Turning to `O=C(O)c1ccc(-c2ccc3c(cnn3-c3ccc(F)c(O)c3)c2)c(Cl)c1` [Compound 12, 3-Chloro-4-(1-(4-Fluoro-3-hydroxyphenyl)-1H-indazol-5-yl)benzoic acid], the IC50 was 1000 to 30000 nM. `Oc1cc(-n2ncc3cc(-c4ccc(N5CCOCC5)cc4Cl)ccc32)ccc1F` [Compound 5.09, 5-(5-(2-Chloro-4-morpholinophenyl)-1H-indazol-1-yl)-2-fluorophenol]: the IC50 was 1000 to 30000 nM. With `Oc1cc(-n2ncc3cc(-c4ccc(C(F)F)cc4)ccc32)ccc1F` [Compound 5.15, 5-(5-(4-(Difluoromethyl)phenyl)-1H-indazol-1-yl)-2-fluorophenol], the IC50 was in the range of 100 to 1000 nM. For the compound `CS(=O)(=O)N1CCN(c2cc3cnn(-c4cc(O)c(F)c(F)c4)c3cc2F)CC1` [Compound 21.24, 2,3-Difluoro-5-(6-fluoro-5-(4-(methylsulfonyl)piperazin-1-yl)-1H-indazol-1-yl)phenol], the 50% inhibitory concentration (IC50) fell in the range of 100 to 1000 nM. Consider `COC(=O)c1nn(-c2cc(C(F)(F)F)c(F)c(O)c2F)c2ccc(N(C)C3CCOCC3)cc12` [Compound 19.88, Methyl 1-(2,4-difluoro-3-hydroxy-5-(trifluoromethyl)phenyl)-5-(methyl(tetrahydro-2H-pyran-4-yl)amino)-1H-indazole-3-carboxylate], for which the IC50 lay within 100 to 1000 nM. Same read-out and setting: under `Oc1cncc(-n2ncc3cc(-c4ccc(O)c(Cl)c4)ccc32)c1` [Compound 17, 5-(5-(3-Chloro-4-hydroxyphenyl)-1H-indazol-1-yl)pyridin-3-ol] stands 100 to 1000 nM. For the compound `COc1ccccc1-c1ccc2c(cnn2-c2ccc(F)c(O)c2)c1` [Compound 5.20, 2-Fluoro-5-(5-(2-methoxyphenyl)-1H-indazol-1-yl)phenol], the IC50 lay within 100 to 1000 nM. As for `N#Cc1ccccc1-c1ccc2c(cnn2-c2ccc(F)c(O)c2)c1` [Compound 6, 2-(1-(4-Fluoro-3-hydroxyphenyl)-1H-indazol-5-yl)benzonitrile], the IC50 is 100 to 1000 nM. Consider `Cc1nn(-c2cc(C(F)(F)F)c(F)c(O)c2F)c2cnc(N3CCN(c4ccccc4)CC3)cc12` [Compound 19.63, 2,6-Difluoro-3-(3-methyl-5-(4-phenylpiperazin-1-yl)-1H-pyrazolo[3,4-c]pyridin-1-yl)-5-(trifluoromethyl)phenol], for which the half-inhibitory concentration (IC50) lay in the range of 100 to 1000 nM.

Consider `CN(C)C(=O)c1nn(-c2cc(C(F)(F)F)c(F)c(O)c2F)c2ccc(N(C)C3CCOCC3)cc12` [Compound 19.113, 1-(2,4-Difluoro-3-hydroxy-5-(trifluoromethyl)phenyl)-N,N-dimethyl-5-(methyl(tetrahydro-2H-pyran-4-yl)amino)-1H-indazole-3-carboxamide], for which the IC50 lay in the range of 1000 to 30000 nM. With `Oc1c(F)c(-n2ncc3nc(N4CCOCC45CC5)ncc32)cc(C(F)(F)F)c1F` [Compound 19.80, 3-(5-(7-Oxa-4-azaspiro[2.5]octan-4-yl)-1H-pyrazolo[4,3-d]pyrimidin-1-yl)-2,6-difluoro-5-(trifluoromethyl)phenol], the IC50 lay within 100 to 1000 nM.

Take `CS(=O)(=O)N1CCN(c2ccc3c(c2)c(C2CC2)nn3-c2cc(O)c(F)c(F)c2)CC1` [Compound 21.12, 5-(3-Cyclopropyl-5-(4-(meth-ylsulfonyl)piperazin-1-yl)-1H-indazol-1-yl)-2,3-difluoro-phenol]: the IC50 lay in the range of 1000 to 30000 nM.

Consider `O=S(=O)(c1ccccc1)N1CCN(c2cc3cnn(-c4cc(O)c(F)c(F)c4)c3cc2Cl)CC1` [Compound 21.39, 5-(6-Chloro-5-(4-(phenyl-sulfonyl)piperazin-1-yl)-1H-indazol-1-yl)-2,3-difluoro-phenol], for which the IC50 lay in the range of 100 to 1000 nM. For the compound `CS(=O)(=O)N1CCN(c2cc3cnn(-c4cccc(O)c4C#N)c3cn2)CC1` [Compound 19.39, 2-Hydroxy-6-(5-(4-(methylsulfonyl)piperazin-1-yl)-1H-pyrazolo[3,4-c]pyridine-1-yl)benzonitrile], the IC50 lay in the range of 1000 to 30000 nM. Consider `Cc1cc(-n2ncc3cc(N4CCN(S(C)(=O)=O)CC4)ncc32)cc(O)c1F` [Compound 19.23, 2-Fluoro-3-methyl-5-(5-(4-(methylsulfonyl)piperazin-1-yl)-1H-pyrazolo[3,4-c]pyridine-1-yl)phenol], for which the concentration for half-maximal inhibition (IC50) was 1000 to 30000 nM. As to `Oc1ccc(-c2ccc3c(cnn3-c3ccc(F)c(O)c3)c2)cc1` [Compound 4.01, 2-Fluoro-5-(5-(4-hydroxyphenyl)-1H-indazol-1-yl)phenol], the IC50 was in the range of 100 to 1000 nM. Turning to `NC(=O)c1ccc(-c2ccc3c(cnn3-c3ccc(F)c(O)c3)c2)c(Cl)c1` [Compound 13, 3-Chloro-4-(1-(4-fluoro-3-hydroxyphenyl)-1H-indazol-5-yl)benzamide], the IC50 lay in the range of 100 to 1000 nM. As to `CS(=O)(=O)N1CCN(c2ccc3c(cnn3-c3ccc(F)c(O)c3)c2)CC1` [Compound 20, 2-Fluoro-5-(5-(4-(methylsulfonyl)piperazin-1-yl)-1H-indazol-1-yl)phenol], the 50% inhibitory concentration (IC50) was 1000 to 30000 nM. Still for that read-out and setting: for `Cc1ccc(-c2ccc3c(cnn3-c3cc(O)c(F)c(F)c3)c2)cn1` [Compound 7.02, 2,3-Difluoro-5-(5-(6-methylpyridin-3-yl)-1H-indazol-1-yl)phenol] the value was 100 to 1000 nM; for `CS(=O)(=O)NC1CN(c2ccc3c(cnn3-c3cc(O)c(F)c(F)c3)c2)C1` [Compound 21.07, N-(1-(1-(3,4-Difluoro-5-hydroxyphenyl)-1H-indazol-5-yl)azetidine-3-yl)methane-sulfonamide], 1000 to 30000 nM; for `Oc1cc(-n2ncc3cc(Nc4ccc(O)c(Cl)c4)ccc32)ccc1F` [Compound 23, 2-Chloro-4-((1-(4-fluoro-3-hydroxyphenyl)-1H-indazol-5-yl)amino)phenol], 100 to 1000 nM. Still for that read-out and setting: under `CC(C)S(=O)(=O)Nc1ccc(-c2ccc3c(cnn3-c3ccc(F)c(O)c3)c2)cc1` [Compound 11, N-(4-(1-(4-Fluoro-3-hydroxyphenyl)-1H-indazol-5-yl)phenyl)propane-2-sulfonamide] stands 100 to 1000 nM.

The assay is the same for the next values; noted with them: read-out: HSD17β13 inhibition at 10 uM.
With `Cc1nn(-c2cc(O)c(F)c(C(=O)O)c2)c2cnc(N3CCOCC34CC4)cc12` [Compound 19.121, 2-Fluoro-3-hydroxy-5-(3-methyl-5-(7-oxa-4-azaspiro[2.5]octan-4-yl)-1H-pyrazolo[3,4-c]pyridin-1-yl)benzoic Acid], the inhibition at 10 µM is under 20%.
